Laboratory results taken from patent US20250002475A1 (EPICS THERAPEUTICS, priority 2023, published 2025).

Each compound was assayed against T1, recombinant METTL3/METTL14 complex (Homo sapiens, UniProt Q86U44) (assay: METTL3/14 Scintillation Proximity Assay (SPA), RNA methyltransferase activity). Conditions: 5.31 nM METTL3/14 complex, 250 nM RNA substrate, 1 μM 3H-SAM, 90 min; for compounds marked * best of the two separated forms.
T1 construct: purchased Active Motif 311970; host or cells: Sf9 cells
T1 sequence (Q86U44 whole entry): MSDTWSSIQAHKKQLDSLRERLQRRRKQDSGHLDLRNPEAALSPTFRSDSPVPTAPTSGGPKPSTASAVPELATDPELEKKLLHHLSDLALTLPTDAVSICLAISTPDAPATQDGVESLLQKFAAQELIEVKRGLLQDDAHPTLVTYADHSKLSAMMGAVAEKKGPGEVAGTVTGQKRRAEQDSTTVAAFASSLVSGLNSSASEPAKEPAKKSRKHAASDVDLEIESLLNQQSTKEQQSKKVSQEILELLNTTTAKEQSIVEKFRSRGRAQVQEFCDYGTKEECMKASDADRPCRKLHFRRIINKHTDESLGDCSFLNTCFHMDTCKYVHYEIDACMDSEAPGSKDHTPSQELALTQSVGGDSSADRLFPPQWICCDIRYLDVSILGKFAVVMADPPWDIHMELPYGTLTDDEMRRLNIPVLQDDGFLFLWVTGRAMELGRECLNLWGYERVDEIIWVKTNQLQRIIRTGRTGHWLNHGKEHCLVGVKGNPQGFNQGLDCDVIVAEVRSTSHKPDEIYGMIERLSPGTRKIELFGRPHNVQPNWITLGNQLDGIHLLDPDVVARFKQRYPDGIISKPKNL
T1 sequence (Q9HCE5 whole entry partner): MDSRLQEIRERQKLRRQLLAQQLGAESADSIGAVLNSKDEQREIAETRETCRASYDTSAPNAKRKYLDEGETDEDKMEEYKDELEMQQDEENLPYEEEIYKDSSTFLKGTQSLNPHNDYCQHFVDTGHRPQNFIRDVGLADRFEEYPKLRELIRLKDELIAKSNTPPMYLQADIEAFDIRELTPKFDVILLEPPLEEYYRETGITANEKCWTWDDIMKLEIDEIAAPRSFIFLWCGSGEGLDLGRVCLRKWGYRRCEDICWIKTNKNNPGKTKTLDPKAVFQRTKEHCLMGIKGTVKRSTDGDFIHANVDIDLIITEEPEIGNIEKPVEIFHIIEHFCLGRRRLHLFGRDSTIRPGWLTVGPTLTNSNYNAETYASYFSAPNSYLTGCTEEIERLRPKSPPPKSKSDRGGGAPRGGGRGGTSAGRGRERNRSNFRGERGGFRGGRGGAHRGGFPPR
Type: biochemical

SMILES | IC50
COc1cncc(-c2ncc(C(C)(O)c3ccc(N4CCC[C@@H](NCC5CCC5)C4)cn3)s2)c1 (single isomer, unassigned) [Compound 165] | ≤ 50 nM
O=C(NCc1ccc(N2CCC[C@@H](NCC3CCC3)C2)cc1)c1cc(=O)n2ccccc2n1 [Compound 070, (R)-N-(4-(3-((cyclobutylmethyl)amino)piperidin-1-yl)benzyl)-4-oxo-4H-pyrido[1,2-a]pyrimidine-2-carboxamide] | ≤ 50 nM
CC(NC(=O)c1cc(=O)n2ccccc2n1)c1ccc(N2CCC[C@@H](NCC3CC3)C2)cn1 (mixture of isomers) [Compound 112, N-(1-(5-((R)-3-((cyclopropylmethyl)amino)piperidin-1-Yl)pyridin-2-yl)ethyl) -4-oxo-4H-pyrido[1,2-a]pyrimidine-2-carboxamide] | ≤ 50 nM
COc1cncc(-c2cc(C(C)n3ccc(N4CCC[C@@H](NCC5CCC5)C4)cc3=O)on2)c1 (mixture of isomers) [Compound 130, 4-((R)-3-((cyclobutylmethyl)amino)piperidin-1-yl)-1-(1-(3-(5-methoxypyridin-3-yl)isoxazol-5-yl)ethyl)pyridin-2(1H)-one] | ≤ 50 nM
COc1cncc(-c2nnc(Cc3ccc(N4CCC[C@@H](NCC5CCC5)C4)nn3)[nH]2)c1 [Compound 069, (R)-N-(cyclobutylmethyl)-1-(6-((5-(5-methoxypyridin-3-yl)-4H-1,2,4-triazol-3-yl)methyl)pyridazin-3-yl)piperidin-3-amine] | ≤ 50 nM
CC(NC(=O)c1cc(=S)n2ccccc2n1)c1ccc(N2CCC[C@@H](NCC3CCC3)C2)nn1 (single isomer, unassigned) [Compound 110] | ≤ 50 nM
O=C(Nc1cc2ccccc2c(=O)[nH]1)C1(c2ccc(N3CCC[C@@H](NCC4CCC4)C3)cn2)COC1 [Compound 302, (R)-3-(5-(3-((cyclobutylmethyl)amino)piperidin-1-yl)pyridin-2-yl)-N-(1-oxo-1,2-dihydroisoquinolin-3-yl)oxetane-3-carboxamide] | ≤ 50 nM
COc1cc(-c2cn(Cc3ccc(N4CCC[C@@H](NC(C)C5CC5)C4)nn3)nn2)c2cn[nH]c2c1 (single isomer, unassigned) [Compound 045] | ≤ 50 nM
COc1cnnc(-c2cn(C(C)c3ccc(N4CCC[C@@H](NCC5CCC5)C4)nn3)nn2)c1 (single isomer, unassigned) [Compound 137] | 50 to 500 nM
O=C(Nc1cnc2[nH]ccc2c1)C1(c2ccc(N3CCC[C@@H](NCC4CCC4)C3)cn2)COC1 [Compound 299, (R)-3-(5-(3-((cyclobutylmethyl)amino)piperidin-1-yl)pyridin-2-yl)-N-(1H-pyrrolo[2,3-b]pyridin-5-yl)oxetane-3-carboxamide] | 50 to 500 nM
COc1cncc(-c2cn(Cn3ncc(N4CCC[C@@H](NCC5CCC5)C4)cc3=O)nn2)c1 [Compound 062, (R)-5-(3-((cyclobutylmethyl)amino)piperidin-1-yl)-2-((4-(5-methoxypyridin-3-yl)-1H-1,2,3-triazol-1-yl)methyl)pyridazin-3(2H)-one] | ≤ 50 nM
Cc1cncc(-c2cn(C(C)n3ccc(N4CCC[C@@H](NCC5CC5)C4)cc3=O)nn2)n1 (single isomer, unassigned) [Compound 255] | 50 to 500 nM
Cn1c(N2CCCC2)cc(-c2cn(C3(c4ccc(N5CCC[C@@H](NCC6CC6)C5)cn4)COC3)nn2)cc1=O [Compound 314, (R)-4-(1-(3-(5-(3-((cyclopropylmethyl)amino)piperidin-1-yl)pyridin-2-yl)oxetan-3-yl)-1H-1,2,3-triazol-4-yl)-1-methyl-6-(pyrrolidin-1-yl)pyridin-2(1H)-one] | ≤ 50 nM
COc1cc(-c2ncc(C(C)c3ccc(N4CCC[C@@H](NCC5CCC5)C4)cn3)s2)c2cn[nH]c2c1 (single isomer, unassigned) [Compound 167] | ≤ 50 nM
COc1cncc(-n2cc(C(C)n3ccc(N4CCC[C@@H](NCC5CCC5)C4)cc3=O)nn2)c1 (mixture of isomers) [Compound 132, 4-((R)-3-((cyclobutylmethyl)amino)piperidin-1-yl)-1-(1-(1-(5-methoxypyridin-3-yl)-1H-1,2,3-triazol-4-yl)ethyl)pyridin-2(1H)-one] | ≤ 50 nM
CC(C(=O)Nc1cncc(N2CCCC2)c1)c1ccc(N2CCC[C@@H](NCC3CC3)C2)nn1 (stereo partly drawn) [Compound 251, 2-(6-((R)-3-((cyclopropylmethyl)amino)piperidin-1-Yl)pyridazin-3-yl)-N-(5-(pyrrolidin-1-yl)pyridin-3-yl)propanamide] | ≤ 50 nM
CNc1ccn2c(=O)cc(C(=O)NC(C)c3ccc(N4CCC[C@@H](NCC5CCC5)C4)nn3)nc2c1 (mixture of isomers) [Compound 091, N-(1-(6-((R)-3-((cyclobutylmethyl)amino)piperidin-1-yl)pyridazin-3-yl)ethyl)-8-(methylamino)-4-oxo-4H-pyrido[1,2-a]pyrimidine-2-carboxamide] | ≤ 50 nM
CNc1cncc(-c2cn(C(C)n3ccc(N4CCC[C@@H](NCC5CCC5)C4)cc3=O)nn2)n1 (stereo partly drawn) [Compound 121, 4-((R)-3-((cyclobutylmethyl)amino)piperidin-1-yl)-1-(1-(4-(6-(methylamino)pyrazin-2-yl)-1H-1,2,3-triazol-1-yl)ethyl)pyridin-2(1H)-one] | ≤ 50 nM

SMILES | IC50
CC(C(=O)Nc1cncc(N2CCCC2)n1)c1ccc(N2CCC[C@@H](NCC3CCC3)C2)cn1 (stereo partly drawn) [Compound 274, 2-(5-((R)-3-((cyclobutylmethyl)amino)piperidin-1-yl)pyridin-2-yl)-N-(6-(pyrrolidin-1-yl)pyrazin-2-yl)propanamide] | ≤ 50 nM
COc1cncc(-c2cn(C(c3ccc(N4CCC[C@@H](NCC5CCC5)C4)nn3)C(F)(F)F)nn2)c1 (single isomer, unassigned) [Compound 064] | ≤ 50 nM
O=C(NCc1ccc(N2CCC[C@@H](NCC3CC3)C2)nn1)c1cc(=O)n2ccccc2n1 [Compound 016, (R)-N-((6-(3-((cyclopropylmethyl)amino)piperidin-1-yl)pyridazin-3-yl)methyl)-4-oxo-4H-pyrido[1,2-a]pyrimidine-2-carboxamide] | 50 to 500 nM
COc1cnc(C#N)c(-c2cn(C(C)n3ccc(N4CCC[C@@H](NCC5CCC5)C4)cc3=O)nn2)c1 (single isomer, unassigned) [Compound 109] | ≤ 50 nM
COc1cncc(-c2cn(Cc3ccc(N4CCC(F)(F)C(NCC5CCC5)C4)nn3)nn2)c1 (stereo not drawn) [Compound 059, N-(cyclobutylmethyl)-4,4-difluoro-1-(6-((4-(5-methoxypyridin-3-yl)-1H-1,2,3-triazol-1-yl)methyl)pyridazin-3-yl)piperidin-3-amine] | 50 to 500 nM
O=c1cc(-c2cn(Cc3ccc(N4CCC[C@@H](NCC5CCC5)C4)cn3)nn2)nc2ccccn12 [Compound 127, (R)-2-(1-((5-(3-((cyclobutylmethyl)amino)piperidin-1-yl)pyridin-2-yl)methyl)-1H-1,2,3-triazol-4-yl)-4H-pyrido[1,2-a]pyrimidin-4-one] | ≤ 50 nM
Cc1cc(N2CCC[C@@H](NCC3CC3)C2)cc(=O)n1Cn1cc(-c2cncc(N(C)C)c2)nn1 [Compound 163] | ≤ 50 nM
COc1cc(-c2cn(Cc3ccc(N4CCCC(N5CC6(CCC6)C5)C4)nn3)nn2)c2cn[nH]c2c1 (stereo not drawn) [Compound 035, 4-(1-((6-(3-(2-azaspiro[3.3]heptan-2-yl)piperidin-1-yl)pyridazin-3-yl)methyl)-1H-1,2,3-triazol-4-yl)-6-methoxy-1H-indazole] | ≤ 50 nM
CC(n1cc(-c2cncc3[nH]ncc23)nn1)n1ccc(N2CCC[C@@H](NCC3CCC3)C2)cc1=O (stereo partly drawn) [Compound 147] | ≤ 50 nM
CC(C(=O)Nc1cc(=O)n2ccccc2n1)c1ccc(N2CCC[C@@H](NCC3CCC3)C2)cn1 (stereo partly drawn) [Compound 265, 2-(5-((R)-3-((cyclobutylmethyl)amino)piperidin-1-yl)pyridin-2-yl)-N-(4-oxo-4H-pyrido[1,2-a]pyrimidin-2-yl)propanamide] | ≤ 50 nM
CNc1cnnc(-c2cn(C(C)n3ccc(N4CCC[C@@H](NCC5CCC5)C4)cc3=O)nn2)c1 (mixture of isomers) [Compound 122, 4-((R)-3-((cyclobutylmethyl)amino)piperidin-1-yl)-1-(1-(4-(5-(methylamino)pyridazin-3-yl)-1H-1,2,3-triazol-1-yl)ethyl)pyridin-2(1H)-one] | ≤ 50 nM
CC(C(=O)Nc1cncc(N2CCCC2)c1)c1ccc(N2CCC[C@@H](NCC3CCC3)C2)cn1 (single isomer, unassigned) [Compound 264] | ≤ 50 nM
CCOc1cncc(-c2cn(C(C)n3ccc(N4CCC[C@@H](NCC5CCC5)C4)cc3=O)nn2)c1 (mixture of isomers) [Compound 103, 4-((R)-3-((cyclobutylmethyl)amino)piperidin-1-yl)-1-(1-(4-(5-ethoxypyridin-3-yl)-1H-1,2,3-triazol-1-yl)ethyl)pyridin-2(1H)-one] | ≤ 50 nM
COc1cncc(-c2nnc(C(C)n3ccc(N4CCC[C@@H](NCC5CCC5)C4)cc3=O)s2)c1 (stereo partly drawn) [Compound 119, 4-((R)-3-((cyclobutylmethyl)amino)piperidin-1-yl)-1-(1-(5-(5-methoxypyridin-3-yl)-1,3,4-thiadiazol-2-yl)ethyl)pyridin-2(1H)-one] | ≤ 50 nM
CC(n1cc(-c2cncc(N(C)C(F)(F)F)c2)nn1)n1ccc(N2CCC[C@@H](NCC3CC3)C2)cc1=O (single isomer, unassigned) [Compound 236] | ≤ 50 nM
N#Cc1cncc(-c2cn(Cc3ccc(N4CCC[C@@H](NCC5CCC5)C4)nn3)nn2)c1 [Compound 021, (R)-5-(1-((6-(3-((cyclobutylmethyl)amino)piperidin-1-yl)pyridazin-3-yl)methyl)-1H-1,2,3-triazol-4-yl)nicotinonitrile] | 50 to 500 nM
CC(C(=O)Nc1cc(=O)n2ccccc2n1)c1ccc(N2CCC[C@@H](NCC3CCC3)C2)nn1 (stereo partly drawn) [Compound 275, 2-(6-((R)-3-((cyclobutylmethyl)amino)piperidin-1-yl)pyridazin-3-yl)-N-(4-oxo-4H-pyrido[1,2-a]pyrimidin-2-yl)propanamide] | 50 to 500 nM
COc1cncc(-c2cn(Cc3ccc(N4C[C@H](NCC5CCC5)CC[C@@H]4C)nn3)nn2)c1 [Compound 038, (3R,6S)-N-(cyclobutylmethyl)-1-(6-((4-(5-methoxypyridin-3-yl)-1H-1,2,3-triazol-1-yl)methyl)pyridazin-3-yl)-6-methylpiperidin-3-amine] | 50 to 500 nM
